Results on 16 compounds are retold here after PubChem BioAssay (NCI).

Holding throughout (test): growth of human tumour cells (NCI), 48 h
In experiment [1] the test system is HL-60(TB) leukemia.
The test system of experiment [2] is COLO 205 colon.
Experiment [3] concerns LOX IMVI melanoma.
Experiment [4] deals with SF-295 CNS.
The test system of experiment [5] is NCI-H522 lung.
Experiment [6] deals with EKVX NSCLC.
The test system of experiment [7] is OVCAR-5 ovarian.
Experiment [8] concerns SK-MEL-5 melanoma.
Experiment [9] has as its system 786-0 renal.
Experiment [10] has as its system SK-MEL-28 melanoma.

Each structure is given as a SMILES string.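 Cells were grown in 96-well plates and exposed to each compound for 48 hours at five concentrations; endpoints were interpolated linearly between bracketing concentrations, or set to the highest concentration if not reached. Abbreviation: GI50, concentration required for 50% inhibition of growth. At the TGI there is no net growth.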

For `[CH3][Ge]([CH3])([CH2]CC#N)[S]c1ccccc1`, the GI50 is 2.2 µM in experiment [1]; 17.5 µM in experiment [2]; 4.36 µM in experiment [3]; 16.5 µM in experiment [4]; 3.31 µM in experiment [5]; 7.28 µM in [6]. Moreover, the GI50 was 17.8 µM in experiment [7], 26 µM in experiment [8], 17.1 µM in experiment [9] and 16.5 µM in experiment [10]. Further, the TGI was 11.9 µM in experiment [1]; 52.4 µM in experiment [2]; 16.9 µM in experiment [3]; 41.5 µM in [4]; 11.1 µM in experiment [5]; 66.2 µM in [6]. Besides, the TGI in experiment [7] was determined as 39.5 µM; in [8], 75.9 µM; in experiment [9] it was 32.8 µM; in experiment [10], 65.1 µM.
For the compound `CCN(CC)Cc1cc(Nc2ccnc3ccc(OC)cc23)ccc1O`, the GI50 in [1] was 1.94 µM; in experiment [2], 1.63 µM; in [3] it was 2.36 µM; in [4], 2.39 µM; in experiment [5], 2.21 µM; in experiment [6] it was 5.16 µM. Also, the GI50 in experiment [7] was 3.95 µM; in experiment [8], 2.46 µM; in experiment [9], 4.67 µM; in experiment [10] it was 3.4 µM. The TGI in experiment [1] is 8.83 µM; in experiment [2], 3.67 µM; in [3], 6.48 µM; in experiment [4] it was 7.64 µM; in [5], 5.61 µM; in [6] it was 38.8 µM. Also, the TGI in experiment [7] is 28 µM; in [8], 6.31 µM; in [9], 18.8 µM; in [10], 10.4 µM.
`N=C1C(c2nc3ccccc3c(=O)[nH]2)=C(O)CN1c1cccc(Cl)c1`: the GI50 is 2.34 µM in experiment [1]; 5.07 µM in experiment [2]; 5.68 µM in [3]; 3.23 µM in [4]; 4.57 µM in experiment [5]; 8.29 µM in [6]. In addition, the GI50 in experiment [7] is over 30.8 µM; in [8], 1.26 µM; in experiment [9], 4.05 µM; in [10], over 22.3 µM. The TGI was over 100 µM in experiment [1]; over 100 µM in experiment [2]; over 100 µM in experiment [3]; 17.8 µM in experiment [4]; over 100 µM in experiment [5]; over 100 µM in experiment [6]. Besides, the TGI in experiment [7] is over 100 µM; in experiment [8], 7.55 µM; in experiment [9], over 100 µM; in experiment [10], over 100 µM.
Turning to `C=CCc1cc(O)ccc1O`, the GI50 in [1] was 2.53 µM; in [2], over 100 µM; in experiment [3], 17 µM; in [4] it was 49.5 µM; in experiment [5] it was 2.49 µM; in experiment [6] it was 41.1 µM. Further, the GI50 in [7] was 26.7 µM; in experiment [8], 43.3 µM; in experiment [9] it was 22.8 µM; in experiment [10], over 100 µM. The TGI in experiment [1] is 7.04 µM; in [2] it was over 100 µM; in experiment [3] it was 48.8 µM; in [4], over 100 µM; in [5] it was 11.1 µM; in experiment [6], over 100 µM. Also, the TGI in experiment [7], in experiment [8], in [9] and in [10] was over 100 µM in each case.
As to `N#CC(Cl)CS(=O)(=O)c1ccccc1` (stereo not given), the TGI was over 100 µM in experiment [1]; 3.8 µM in experiment [2]; 22 µM in [3]; 36.3 µM in experiment [4]; 2.26 µM in [5]; 38.6 µM in experiment [6]. Besides, the TGI in [7] was 35.3 µM; in [8], 29.6 µM; in experiment [9], 30.5 µM; in experiment [10], 28 µM.
`N#Cc1c(-c2ccccc2)nc(SCC(O)CN2CCOCC2)nc1N1CCOCC1` (stereo not given): the GI50 in experiment [1] is 4.05 µM; in [2] it was 29.6 µM; in experiment [3], 17.6 µM; in experiment [4], 5.49 µM; in experiment [5] it was 18.3 µM; in [6], 7.52 µM. The GI50 is 19 µM in [7], 2.99 µM in experiment [8], 14.8 µM in [9] and 11.2 µM in [10]. Further, the TGI in experiment [1] is 15.3 µM; in [2], 84.6 µM; in experiment [3] it was over 100 µM; in experiment [4], over 100 µM; in experiment [5], over 100 µM; in experiment [6], over 100 µM. In addition, the TGI in [7] was over 100 µM; in experiment [8] it was 47.9 µM; in experiment [9], over 100 µM; in [10] it was over 100 µM.
Turning to `CN1C(=O)[C@@H](CC2CCCC2)N(C2CCCC2)c2nc(Nc3cc(Cl)c(O)c(Cl)c3)ncc21`, the GI50 was 10.3 µM in [1]; 23 µM in experiment [2]; 19.5 µM in experiment [3]; 23.3 µM in experiment [4]; 10.8 µM in [5]; 22.4 µM in experiment [6]. Moreover, the GI50 in [7] is 27.7 µM; in experiment [8] it was 17.4 µM; in experiment [9], 15.2 µM; in [10] it was 22.6 µM. Also, the TGI is 58.1 µM in [1]; 56.1 µM in [2]; 49.3 µM in experiment [3]; 81.9 µM in experiment [4]; over 100 µM in experiment [5]; over 100 µM in experiment [6]. In addition, the TGI in experiment [7] was over 100 µM; in experiment [8], 32.9 µM; in [9] it was 47.2 µM; in experiment [10] it was over 100 µM.
Turning to `O=C(Nc1nc2ccc(OC(F)(F)F)cc2s1)c1ccc(F)cc1`, the GI50 is 3.04 µM in [1]; 2.11 µM in experiment [2]; 3.21 µM in [3]; 2.54 µM in experiment [4]; 3.14 µM in experiment [5]; 2.65 µM in [6]. The GI50 in [7] was 3.62 µM; in experiment [8], 2.45 µM; in experiment [9], 3.47 µM; in experiment [10], 3.6 µM. The TGI in experiment [1] is 9.29 µM; in [2] it was 4.11 µM; in experiment [3], 9.03 µM; in experiment [4] it was 9.35 µM; in experiment [5], 11.4 µM; in experiment [6] it was 10.6 µM. Further, the TGI was 27.6 µM in experiment [7], 6.6 µM in experiment [8], over 100 µM in [9] and over 100 µM in [10].
On to `CCCCN(CCCC)CC(C(=O)Nc1ccc([N+](=O)[O-])cc1[N+](=O)[O-])/C(C)=N\NC(=O)c1ccncc1` (stereo not given), for which the TGI in experiment [1], in experiment [2], in experiment [3], in experiment [4], in experiment [5] and in experiment [6] was over 100 µM throughout. The TGI in experiment [7], in experiment [8], in experiment [9] and in [10] was over 100 µM throughout.
In the case of `CN1CCC(=C(c2ccc(Cl)cc2)c2ccccn2)CC1`, the GI50 was 58.9 µM in [1]; 31.7 µM in experiment [2]; 56.7 µM in [3]; 37.6 µM in experiment [4]; 95.5 µM in experiment [5]; over 100 µM in [6]. Besides, the GI50 in experiment [7] is over 100 µM; in experiment [8] it was 50.7 µM; in [9], over 100 µM; in [10] it was 86.1 µM. Moreover, the TGI in experiment [1], in [2], in experiment [3], in experiment [4], in [5] and in experiment [6] was over 100 µM throughout. Further, the TGI in [7], in [8], in experiment [9] and in experiment [10] was over 100 µM in each case.
In the case of `Cn1cc(Nc2nccc(-c3ccc4c(c3)CN(C3COC3)CC[C@H]4NC(=O)c3cn(C(C)(C)C)nn3)n2)cn1`, the GI50 is over 100 µM in experiment [1]; 30.6 µM in experiment [2]; 38.5 µM in [3]; over 100 µM in experiment [4]; 96.1 µM in experiment [5]; over 100 µM in [6]. The GI50 was 45.2 µM in [7], 26.3 µM in experiment [8], 50.5 µM in [9] and 46.9 µM in experiment [10]. Also, the TGI in [1], in experiment [2], in experiment [3], in [4], in experiment [5] and in [6] was over 100 µM each time. In addition, the TGI in [7], in experiment [8], in experiment [9] and in experiment [10] was over 100 µM each time.
`COc1cc(C(=O)/C=C/c2cccnc2Nc2ccc(Cl)cc2)cc(OC)c1OC`: the GI50 was 1.59 µM in [1]; 1.83 µM in experiment [2]; 1.27 µM in [3]; 1.93 µM in experiment [4]; 1.46 µM in [5]; 1.61 µM in experiment [6]. Also, the GI50 in [7] was 1.74 µM; in experiment [8], 1.5 µM; in [9], 1.46 µM; in [10], 1.72 µM. Also, the TGI was 5.14 µM in experiment [1]; 3.47 µM in experiment [2]; 2.59 µM in [3]; 3.97 µM in [4]; 3 µM in experiment [5]; 3.16 µM in experiment [6]. The TGI in experiment [7] was 3.32 µM; in experiment [8], 2.84 µM; in experiment [9], 2.78 µM; in [10] it was 3.12 µM.
In the case of `Cc1ncnc2c1ccn2[C@@H]1C[C@H](Oc2cc(C(F)F)c(F)c3c2CNCC3)[C@@H](O)[C@H]1O`, the GI50 in [1], in experiment [2], in experiment [3], in experiment [4], in experiment [5] and in experiment [6] was over 100 µM each time. Besides, the GI50 in experiment [7], in experiment [8], in experiment [9] and in experiment [10] was over 100 µM throughout. Also, the TGI in [1], in experiment [2], in experiment [3], in [4], in experiment [5] and in experiment [6] was over 100 µM each time. The TGI in experiment [7], in experiment [8], in [9] and in experiment [10] was over 100 µM throughout.
Take `Nc1nc2c(ncn2C2OC(CO)C(O)C2O)c(=O)o1` (stereo not given): the TGI in experiment [1], in experiment [2], in [3], in experiment [4], in experiment [5] and in [6] was over 100 µM throughout. Besides, the TGI in [7], in [8], in [9] and in experiment [10] was over 100 µM throughout.
Take `CCOC(=O)C(Cc1ccccc1)n1c(O)c(/C=N/c2ncc(Cc3ccc(Cl)cc3Cl)s2)sc1=S` (stereo not given): the GI50 is 2.29 µM in experiment [1]; 1.66 µM in experiment [2]; 3.44 µM in [3]; 2.31 µM in experiment [4]; 1.31 µM in [5]; 2.07 µM in [6]. In addition, the GI50 in experiment [7] was 4.2 µM; in [8], 1.52 µM; in experiment [9] it was 3.15 µM; in [10], 2.61 µM. The TGI in experiment [1] is 7.06 µM; in experiment [2], 3.34 µM; in experiment [3] it was 16.5 µM; in experiment [4], 6.84 µM; in experiment [5] it was 5.7 µM; in experiment [6] it was over 100 µM. The TGI in experiment [7] is over 100 µM; in [8], 4.13 µM; in experiment [9], over 100 µM; in [10], 26.4 µM.
Take `NC(=O)NC(=O)Nc1ccc(Br)cc1`: the TGI is over 6.62 µM in experiment [1]; over 28.8 µM in experiment [2]; over 56.9 µM in experiment [3]; over 100 µM in experiment [4]; over 40 µM in [5]; 48.4 µM in experiment [6]. Further, the TGI in [7] is over 100 µM; in [8], over 18.6 µM; in [9], over 100 µM; in experiment [10] it was over 17.7 µM.
